Patent EP4692095A1, “SALT CRYSTAL FORM OF QUATERNARY FUSED RING COMPOUND, AND PREPARATION METHOD THEREFOR AND USE THEREOF” (Jiangsu Hansoh Pharmaceutical Group Co., Ltd., priority 2023, dated 2024)
Each block holds one molecule with its values, some of them ahead of it.

Legend:
[1] = Pharmacokinetic study in rats; format: in vivo; conditions: for AUC(0-inf) / Cmax / MRT / Tmax / half-life: in vivo, suspension in 0.5% HPMC K4M
Procedure: (§1) The crystal form A of the p-tosylate of the compound was fully suspended in an aqueous solution of 0.5% HPMC (hydroxypropylmethyl cellulose) K4M, and then administered to rats by gavage at a dosage of 10 mg/kg and 30 mg/kg, with three rats in each parallel experiment. The amount of the compound was fully converted into the amount of an equivalent free base.

[2] = Pharmacokinetic study in dogs; format: in vivo, beagle dogs
Procedure: as §1, with “to beagle dogs” for “to rats”, “of 20” for “of 10”, “and a dose volume of 5 mL/kg,” for “and 30 mg/kg,”, “three dogs” for “three rats”

[3] = test system: human chronic myeloid leukemia cell strain KCL22-s; test: Efficacy on subcutaneous xenograft tumor model of KCL22-s; conditions: oral, dosing cycle 15 days
[4] = Thermodynamical stability experiment (polymorph screening by slurrying, XRPD); format: physicochemical
Procedure: An organic solvent with certain solubility was selected, and the crystal form A of the p-tosylate of the compound was suspended in the solvent system. The resulting system was slurried by stirring at room temperature for 2 weeks, and centrifuged. The supernatant was discarded. After the solid was dried under vacuum at 50°C (-0.1 MPa) for 16 h, the XRPD pattern of the solid was measured and compared with the XRPD of the salt of the starting compound.

[5] = as above; format: physicochemical; conditions: comparison of DSC patterns of crystal forms A-E
[6] = Dynamic vapor sorption experiment; format: physicochemical
Procedure: The crystal form A of the p-tosylate of the compound was placed in saturated water vapor with different relative humidities to reach a dynamic equilibrium between the compound and the water vapor, and the percentage of hygroscopic weight gain of the compound after reaching the equilibrium was calculated.

ABL1 WT kinase = ABL1 WT kinase (Homo sapiens, UniProt P00519); test: In vitro inhibitory activity against ABL1 WT kinase (capillary electrophoresis, substrate peptide phosphorylation); format: biochemical; conditions: Maximum concentration 1 µM
Chain of ABL1 WT kinase (P00519 whole entry): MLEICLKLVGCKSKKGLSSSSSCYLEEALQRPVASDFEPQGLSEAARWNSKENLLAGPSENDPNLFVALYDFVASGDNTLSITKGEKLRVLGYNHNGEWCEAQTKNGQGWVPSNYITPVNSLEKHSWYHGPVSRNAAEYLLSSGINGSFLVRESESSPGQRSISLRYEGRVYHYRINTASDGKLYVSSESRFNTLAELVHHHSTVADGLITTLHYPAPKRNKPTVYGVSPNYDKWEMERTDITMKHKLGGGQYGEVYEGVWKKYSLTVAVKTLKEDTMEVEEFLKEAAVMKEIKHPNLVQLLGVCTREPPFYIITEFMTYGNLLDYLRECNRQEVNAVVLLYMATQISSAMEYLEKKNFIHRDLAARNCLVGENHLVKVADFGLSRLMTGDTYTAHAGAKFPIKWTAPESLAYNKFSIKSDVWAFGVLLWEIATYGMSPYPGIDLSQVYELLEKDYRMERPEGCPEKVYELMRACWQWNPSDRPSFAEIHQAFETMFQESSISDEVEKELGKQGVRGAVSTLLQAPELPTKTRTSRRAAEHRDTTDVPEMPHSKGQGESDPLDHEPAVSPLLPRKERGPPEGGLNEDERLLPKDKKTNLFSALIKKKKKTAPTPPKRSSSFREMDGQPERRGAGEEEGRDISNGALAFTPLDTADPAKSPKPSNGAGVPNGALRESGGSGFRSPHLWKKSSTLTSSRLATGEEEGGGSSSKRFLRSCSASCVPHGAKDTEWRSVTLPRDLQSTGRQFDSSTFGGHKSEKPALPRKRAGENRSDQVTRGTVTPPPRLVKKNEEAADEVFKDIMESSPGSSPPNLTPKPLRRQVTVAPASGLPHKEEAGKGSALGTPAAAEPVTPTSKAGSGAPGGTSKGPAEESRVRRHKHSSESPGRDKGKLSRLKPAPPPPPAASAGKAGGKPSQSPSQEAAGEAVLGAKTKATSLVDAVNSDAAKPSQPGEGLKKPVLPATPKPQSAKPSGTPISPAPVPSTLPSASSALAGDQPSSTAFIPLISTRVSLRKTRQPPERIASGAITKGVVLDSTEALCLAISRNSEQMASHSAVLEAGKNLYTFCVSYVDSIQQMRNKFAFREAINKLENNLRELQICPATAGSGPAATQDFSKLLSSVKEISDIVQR
Procedure: Capillary electrophoresis was used to detect the phosphorylation conversion rate of the substrate peptide to determine the IC50 value of the test compound for inhibiting the kinase (ABL1-WT). The maximum concentration of the compound tested in the test was 1000 nM, with 3-fold dilution, and a total of 12 concentrations (1000 - 0.0056 nM). First, an enzyme reaction system (the concentration of enzyme ABL1-WT was 1.3 nM, the concentration of substrate FLPeptide2 was 1.5 µM, and the reaction factor was 10 mM MgCl2) was prepared. After incubation at room temperature for 30 min, 5 µL of 4×ATP solution was added to start the enzyme reaction. After reacting at room temperature for 90 min, the reaction was stopped by adding a stop buffer (containing 0.5 M EDTA). The sample was analyzed using an EZ reader (analysis conditions: pressure -1.5PSI, upper voltage current -2250V, lower voltage current -500V, separation time 40 sec, system delay 100.0 sec).
From the conversion rate read by EZ Reader, the remaining activity was calculated according to the following formula. Remaining Activity (%) = 100% × (CRSample −CRLC)/(CRHC −CRLC) [formula]
IC50 was calculated using XLfit, and IC50 was calculated by Formula 201 as the fitting formula.

[7] = test system: human erythroleukemia cells K562; test: Inhibition of proliferation of tumor cell strains carrying BCR-ABL1 fusion mutations (CellTiter-Glo); format: cell-based; conditions: 72 h
From the text: (§2) The test objective was to evaluate the inhibitory activity of the compounds of the present invention against proliferation of human erythroleukemia cells K562, human peripheral blood basophilic leukemia cells Ku812, and human chronic granulocytic leukemia cells KCL22-s and KCL22-r cultured in vitro.
(§3) CellTiter-Glo® Luminescent Cell Viability Assay was used to detect the inhibitory effect of drugs on tumor cell proliferation and growth. The logarithmic growth phase cells cultured overnight were directly taken, pipetted up and down, mixed and counted, the cell density was adjusted according to different cell density requirements, and the cells were prepared into a cell suspension and plated on a 96-well plate. Drugs at different concentrations were added, three replicate wells were set for each concentration, and corresponding solvent controls were set. The maximum concentration of compound detected was 500 nM, with 3-fold gradient dilution, and a total of 9 concentrations (500-0.076 nM). The cells with the compound being added were cultured for another 72 h at 37°C and 5% CO2. The culture plate and its contents were equilibrated to room temperature, the CellTiter-Glo® reagent was added, the contents was mixed on a shaker for 3 min to induce cell lysis, the culture plate was further incubated at room temperature in the dark for 10 min, and the chemiluminescence signal value was determined by a microplate reader (BioTek SynergyH1).

[8] = test system: human chronic granulocytic leukemia cells KCL22-r; test: as above; format: cell-based; conditions: KCL22-r (imatinib-resistant strain), 72 h
From the text: as §2, §3

[9] = test system: human peripheral blood basophilic leukemia cells Ku812; test: as above; format: cell-based; conditions: 72 h
From the text: as §2, §3

[10] = test system: human chronic granulocytic leukemia cells KCL22-s; test: as above; format: cell-based; conditions: KCL22-s (imatinib-sensitive strain), 72 h
From the text: as §2, §3

Ba/F3 BCR-ABL1-G250E = test: Inhibition of proliferation of BaF3 cells overexpressing BCR-ABL1 mutations (CellTiter-Glo); format: cell-based, Mouse; conditions: 72 h
From the text: (§4) The test objective was to evaluate the inhibitory activity of the compounds of the present invention against proliferation of the Ba/F3 BCR-ABL1-T315I, Ba/F3 BCR-ABL1-E255K, Ba/F3 BCR-ABL1-E255V, and Ba/F3 BCR-ABL1-G250E mutation models of mouse primary B cells cultured in vitro.
(§5) CellTiter-Glo® Luminescent Cell Viability Assay was used to detect the inhibitory effect of drugs on tumor cell proliferation and growth. The logarithmic growth phase cells cultured overnight were directly taken, pipetted up and down, mixed and counted, the cell density was adjusted according to different cell density requirements, and the cells were prepared into a cell suspension and plated on a 96-well plate. Drugs at different concentrations were added, 3 replicate wells were set for each concentration, and corresponding vehicle controls were set. The maximum test concentration in Ba/F3 BCR-ABL1-T315I and Ba/F3 BCR-ABL1-E255K cells was 10000 nM, with 3.16-fold gradient dilution and a total of 9 concentrations (10000-1.0058 nM). The maximum concentration of the compounds detected in other cells was 500 nM, with 3.16-fold gradient dilution, and a total of 9 concentrations (500-0.0503 nM). The cells with the compound being added were cultured for another 72 h at 37°C and 5% CO2. The culture plate and its contents were equilibrated to room temperature, the CellTiter-Glo® reagent was added, the contents were mixed on a shaker for 5 min to induce cell lysis, the culture plate was further incubated at room temperature in the dark for 20 min, and the luminescence was read with a microplate reader.

Ba/F3 BCR-ABL1-T315I = test: as above; format: cell-based, Mouse; conditions: 72 h
From the text: as §4, §5

Ba/F3 BCR-ABL1-E255K = test: as above; format: cell-based, Mouse; conditions: 72 h
From the text: as §4, §5

Ba/F3 BCR-ABL1-E255V = test: as above; format: cell-based, Mouse; conditions: 72 h
From the text: as §4, §5

[11] = dog, in vivo, po, beagle dogs, gavage 20 mg/kg, suspension in 0.5% HPMC K4M

Molecule: C[C@@H]1COC2NC=NC=C2c2cc(C(=O)Nc3ccc(OC(F)(F)Cl)cc3)cc3nc(C(F)F)n1c23 (some centres unmarked) [Crystal form A of p-tosylate]
AUC(0-inf) ([1]; Rat PO 10 mg/kg): 2600 ng·h/mL
Cmax ([1]; Rat PO 10 mg/kg): 881 ng/mL
MRT ([1]; Rat PO 10 mg/kg): 2.86 h
Tmax ([1]; Rat PO 10 mg/kg): 1 h
half-life ([1]; Rat PO 10 mg/kg): 3.55 h
AUC(0-inf) ([1]; Rat PO 30 mg/kg): 15600 ng·h/mL
Cmax ([1]; Rat PO 30 mg/kg): 4510 ng/mL
MRT ([1]; Rat PO 30 mg/kg): 2.97 h
Tmax ([1]; Rat PO 30 mg/kg): 1 h
half-life ([1]; Rat PO 30 mg/kg): 2.71 h
F ([2]; beagle dogs, gavage 20 mg/kg, suspension in 0.5% HPMC K4M): 68.6%
AUC(0-inf) [2, 11]: 40400 ng·h/mL
Cmax [2, 11]: 5720 ng/mL
MRT [2, 11]: 5.47 h
Tmax [2, 11]: 1.33 h
half-life [2, 11]: 5.58 h

Molecule: Cc1ccc(NC(=O)c2ccc(CN3CCN(C)CC3)cc2)cc1Nc1nccc(-c2cccnc2)n1 [Imatinib]
T/C ([3]; 75 mg/kg qd): 46.92%
TGI ([3]; 75 mg/kg qd): 56.03%

pharmacokinetics in rats (in words) ([1]; gavage, dose of 30 mg/kg): good metabolic properties
Crystal form results ([4]; Initial (before slurrying)): Form A
Crystal form results ([4]; slurried in 2-butanone, room temperature, 2 weeks, XRPD): Form A
Crystal form results ([4]; slurried in 2-methyltetrahydrofuran, room temperature, 2 weeks, XRPD): Form A
Crystal form results ([4]; slurried in 3-pentanone, room temperature, 2 weeks, XRPD): Form A
Crystal form results ([4]; slurried in Acetone, room temperature, 2 weeks, XRPD): Form A
Crystal form results ([4]; slurried in Acetonitrile, room temperature, 2 weeks, XRPD): Form A
Crystal form results ([4]; slurried in Chloroform, room temperature, 2 weeks, XRPD): Form A
Crystal form results ([4]; slurried in Dichloromethane, room temperature, 2 weeks, XRPD): Form A
Crystal form results ([4]; slurried in Ethanol, room temperature, 2 weeks, XRPD): Form A
Crystal form results ([4]; slurried in Ethyl acetate, room temperature, 2 weeks, XRPD): Form A
Crystal form results ([4]; slurried in Ethyl formate, room temperature, 2 weeks, XRPD): Form A
Crystal form results ([4]; slurried in Isopropanol, room temperature, 2 weeks, XRPD): Form A
Crystal form results ([4]; slurried in Isopropyl acetate, room temperature, 2 weeks, XRPD): Form A
Crystal form results ([4]; slurried in Methanol, room temperature, 2 weeks, XRPD): Form A
Crystal form results ([4]; slurried in Tetrahydrofuran, room temperature, 2 weeks, XRPD): Form A
Crystal form results ([4]; slurried in Toluene, room temperature, 2 weeks, XRPD): Form A
Crystal form results ([4]; slurried in n-heptane, room temperature, 2 weeks, XRPD): Form A
crystal form (XRPD pattern) after hygroscopic-dehygroscopic cycles ([6]; 2 cycles at relative humidity of 0-95%): remained unchanged
hygroscopic weight gain ([6]; at RH 80%): 0.3545%
stability in a humid environment ([6]; conclusion in words): stable in a humid environment
Molecule: (3R)-N-(4-(chlorodifluoromethoxy)phenyl)-2-(difluoromethyl)-3-methyl-3,4,5a,6-tetrahydro-5-oxa-1,2a,6,8-tetraazabenzo[4,5]cyclooctyl[1,2,3-cd]indene-11-carboxamide [crystal form A of the p-tosylate]
pharmacokinetics in dogs (in words) ([2]; gavage, 20 mg/kg): good metabolic properties, exposure dosage, and significantly improved bioavailability
thermodynamic stability among crystal forms of the p-tosylate [5]: the most thermodynamically stable crystal form among these crystal forms

Molecule: p-tosylate of (3R)-N-(4-(chlorodifluoromethoxy)phenyl)-2-(difluoromethyl)-3-methyl-3,4,5a,6-tetrahydro-5-oxa-1,2a,6,8-tetraazabenzo[4,5]cyclooctyl[1,2,3-ed]indene-11-carboxamide [Example 1]
IC50 (ABL1 WT kinase): 0.43 nM
T/C ([3]; 1.5 mg/kg bid): 7.05%
TGI ([3]; 1.5 mg/kg bid): 98.20%
Tumor volume ([3]; 1.5 mg/kg bid): 143±35 mm^3
T/C ([3]; 3 mg/kg bid): 0.69%
TGI ([3]; 3 mg/kg bid): 187.08%
Tumor volume ([3]; 3 mg/kg bid): 14±5 mm^3
T/C ([3]; 3 mg/kg qd): 3.98%
TGI ([3]; 3 mg/kg qd): 127.26%
Tumor volume ([3]; 3 mg/kg qd): 81±19 mm^3
T/C ([3]; 7.5 mg/kg bid): 0.52%
TGI ([3]; 7.5 mg/kg bid): 190.62%
Tumor volume ([3]; 7.5 mg/kg bid): 11±7 mm^3
IC50 [7]: 13 nM
IC50 [8]: 14.6 nM
IC50 [9]: 4.13 nM
IC50 [10]: 2.99 nM
IC50 (Ba/F3 BCR-ABL1-G250E): 5.36 nM
IC50 (Ba/F3 BCR-ABL1-T315I): 46.8 nM
IC50 (Ba/F3 BCR-ABL1-E255K): 26.3 nM
IC50 (Ba/F3 BCR-ABL1-E255V): 7.15 nM
